{"source": "patent US4794114A", "about": "“Inhibition of interleukin-1 production by monocytes and/or macrophages” (SmithKline Beckman Corporation, priority 1987, dated 1988)", "key": {"[1]": {"test_system": "endotoxin shock in C57B1/6 mice", "format": "in vivo, mouse", "method": "(§1) Mice are very resistant to the lethal effects of bacterial lipopolysaccharides (LPS). D-Galactosamine (D-GALN) induces a high degree of sensitization to the lethal effects of LPS in mice and other experimental animals. [See, Galanos et al., Proc. Natl. Acad Sci. USA., 76, 5939 (1979)]. In mice, depending on the strain and age, the sensitivity to endotoxin can be increased many thousand-fold.\nA number of preliminary experiments were carried out to establish this model of lethal endotoxin shock."}, "[2]": {"test_system": "IL-1 production by human monocytes", "details": "Lipsky, Amer. J. Med. 75, Supp. 1A, 19 (1983); cited from earlier work"}, "[3]": {"test_system": "IL-1 production by human monocytes", "test": "in vitro IL-1 production by LPS-stimulated human peripheral blood monocytes (EL-4 readout)", "format": "cell-based", "method": "The effects of antiinflammatory/antiarthritic drugs of different classes, including Compound 1 on the in vitro production of IL-1 by human monocytes was examined.\n(§2) Bacterial lipopolysaccharide (LPS) was used to induce IL-1 production by human peripheral blood monocytes. IL-1 activity was measured by its ability to stimulate a Interleukin 2 (IL-2) producing cell line (EL-4) to secrete IL-2, in concert with A23187 ionophore, according to the method of Simon et al., J. Immunol. Methods, 84, 85, (1985). Human peripheral blood monocytes were isolated and purified from either fresh blood preparations from volunteer donors, or from blood Bank buffy coats, according to the procedure of Colotta et al., J. Immunol., 132, 936 (1984). 1×10^6 of such monocytes are plated in 24-well plates at a concentration of 2 million/ml per well. The cells were allowed to adhere for 2 hours, after which time non-adherent cells were removed by gentle washing. Test compounds were then added to the cells for 1 hour (hr) before the addition of lipopolysaccharide (10 ng/ml unless otherwise noted), and the cultures were incubated at 37° C. for an additional 24 hours. At the end of the incubation period, culture supernatants were removed and clarified of cells and all debris. Culture supernatants were immediately assayed for IL-1 biological activity as well as prostaglandin and/or leukotriene concentrations by radioimmunoassay.\n^(a) All compounds, except chloroquine, were dissolved in absolute\nethanol at 10^-2 M, which was subsequently diluted further in tissue\nassay system at doses tested. Furthermore, test samples were dialyzed\nprior to testing in the IL1 assay.\nIn order to elucidate the mechanism by which Compound 1 mediates its anti-inflammatory activity, the ability of this compound and two closely related analog metabolites, (i.e., the analogs of Compound 1 wherein X is S(0)n and n is 1 or 2) to inhibit human IL-1 production in vitro was evaluated according to the method of Example 1. Briefly, 1×10^6 human peripheral blood monocytes were plated in 24-well plates and allowed to adhere for 1 hr at 37° C. The above compounds were added to a final concentration of 10^-5 M to 10^-8 M. The monocytes were stimulated to produce IL-1 with 1 ng/ml LPS after a 1 hr pretreatment of the cells with the respective compounds.\nThe inhibitory effect of additional compounds of Formula (I) on the in vitro production of IL-1 production of IL-1 by human monocytes was determined according to the procedure of Examples 1 and 2."}, "PGE2": {"test_system": "PGE2", "test": "in vitro prostaglandin (PGE2) synthesis by LPS-stimulated human monocytes, RIA", "format": "cell-based", "details": "for inhibition at 0.1 µM / inhibition at 1 µM / inhibition at 10 µM: Homo sapiens, Monocyte, read-out: % Inhibition PGE2", "method": "as §2\n^(c) PGE2 was assayed using an RIA kit."}, "C57B1/6 mice": {"test_system": "C57B1/6 mice", "test": "lethality of LPS in D-galactosamine treated C57B1/6 mice", "format": "in vivo, mouse", "details": "for Lethality, No. of Death/Total No.: D-Galactosamine 500 mg/kg i.v.", "method": "as §1\nA number of preliminary experiments were carried out to establish this model of lethal endotoxin shock. LPS concentrations of up to 1 mg/mouse are not lethal in C57B1/6 mice. When injected i.v. with D-GALN (500 mg/kg), however, the sensitivity increases so that 0.1 ug becomes a lethal dose (Table 5). The concentration of D-GALN required to obtain this effect is 400-500 mg/kg.\nAll compounds were administered i.v."}, "[4]": {"test_system": "IL-1 production by splenic adherent cells", "test": "adjuvant-induced arthritis in the rat: IL-1 production by LPS-stimulated splenic adherent cells", "format": "in vivo", "details": "for IL-1 Production (splenic adherent cells), % normal control: mg/kg: Compound 1 60, indomethacin 2.0, prednisolone 10, methotrexate 0.3, D-penicillamine 50", "method": "(§3) Adjuvant-induced arthritis in the rat is a model of systemic inflammation with characteristics similar to rheumatoid arthritis in man. […] This model was employed to assess the effect of Compound 1 in vivo on this elevated IL-1 production. Briefly, rats were injected on day 0 with Freund's complete adjuvant in the right hind leg. Drugs were prepared as a suspension in tragacanth and administered daily per os either prophylactically (days 1 to 16) or therapeutically in a short-term modality (days 14 to 16). In all cases, final administration of drug occurred at 3 hours prior to sacrifice. Spleens were removed from these rats and the adherent cells were assessed for their ability to produce IL-1 in vitro in response to stimulation by LPS.\n(§4) PROPHYLACTIC TREATMENT: Drugs were administered daily p.o. as a suspensio\n(§5) in tragacanth from day 1 to day 16. Final dose given 3 hrs before\n(§6) TREATMENT: Drugs were administered daily p.o. as above from\n(§7) day 14 to day 16. Final dose given 3 hrs before sacrifice.\n(§8) ***P < 0.01 Indomethacin 2.0 mg/kg\n(§9) **P < 0.05 Compound 1 60 mg/kg\n(§10) *P < 0.10 Prednisolone 10 mg/kg\n(§11) D-Penicillamine 50 mg/kg"}, "[5]": {"test_system": "adjuvant-induced arthritis in the rat", "test": "adjuvant-induced arthritis in the rat: right leg paw edema", "format": "in vivo", "details": "mg/kg: Compound 1 60, indomethacin 2.0, prednisolone 10, methotrexate 0.3, D-penicillamine 50", "method": "as §3, §4, §5, §6, §7, §8, §9, §10, §11"}, "splenic adherent cells": {"test_system": "splenic adherent cells", "test": "adjuvant-induced arthritis in the rat: % splenic adherent cells", "format": "in vivo", "details": "mg/kg: Compound 1 60, indomethacin 2.0, prednisolone 10, methotrexate 0.3, D-penicillamine 50", "method": "as §3, §4, §5, §6, §7, §8, §9, §10, §11"}, "[6]": {"details": "Homo sapiens, Monocyte, read-out: % Inhibition IL-1"}, "[7]": {"details": "Homo sapiens, Monocyte, 10^-6 M, Table 3, read-out: % Inhibition @ 10^-6 M"}, "[8]": {"details": "prophylactic, daily p.o. days 1-16"}, "[9]": {"details": "therapeutic, daily p.o. days 14-16"}}, "note": "Like-named read-outs stand apart in the source and are kept apart here.", "data": [{"compound": "C[C@@H]1C[C@H]2[C@@H]3CCC4=CC(=O)C=C[C@]4(C)[C@@]3(F)[C@@H](O)C[C@]2(C)[C@@]1(O)C(=O)CO", "note": "[Dexamethasone]", "values": [{"measurement": "protection", "setting": "[1]; administered 24 hours and 1 hour prior to LPS/GALN", "result": "provided protection"}]}, {"compound": "CCN(CC)CCCC(C)Nc1ccnc2cc(Cl)ccc12", "note": "(centres unmarked) [Chloroquine]", "values": [{"measurement": "inhibition of IL-1 production, literature", "setting": "[2]", "result": "inhibit IL-1 production"}, {"measurement": "inhibition at 0.1 µM", "setting": "[3]; [6]", "result": 36, "unit": "%"}, {"measurement": "inhibition at 1 µM", "setting": "[3]; [6]", "result": 46, "unit": "%"}, {"measurement": "inhibition at 10 µM", "setting": "[3]; [6]", "result": 89, "unit": "%"}, {"measurement": "inhibition of IL-1 production", "setting": "[3]; doses one or two logs higher than Compound 1", "result": "only marginally active"}, {"measurement": "inhibition at 0.1 µM", "setting": "PGE2", "result": 0, "unit": "%"}, {"measurement": "inhibition at 1 µM", "setting": "PGE2", "result": 0, "unit": "%"}, {"measurement": "inhibition at 10 µM", "setting": "PGE2", "result": 84, "unit": "%"}]}, {"compound": "N[C@H]1C(O)O[C@H](CO)[C@H](O)[C@@H]1O", "note": "(stereo partly drawn) [D-Galactosamine]", "values": [{"measurement": "Lethality, No. of Death/Total No.", "setting": "C57B1/6 mice; 6 Hr.", "result": "0/10"}, {"measurement": "Lethality, No. of Death/Total No.", "setting": "C57B1/6 mice; 24 Hr.", "result": "0/10"}, {"measurement": "D-GALN concentration required to sensitize to LPS", "setting": "C57B1/6 mice; with LPS, i.v.", "result": "400 to 500", "unit": "mg/kg"}]}, {"compound": "Fc1ccc(-c2c(-c3ccncc3)nc3n2CCS3)cc1", "note": "[Compound 4]", "values": [{"measurement": "inhibition at 1 µM", "setting": "[3]; [7]", "result": 46, "unit": "%"}]}, {"compound": "CC(C)(S)[C@@H](N)C(=O)O", "note": "[D-PENICILLAMINE, d-penicillamine]", "values": [{"measurement": "IL-1 Production (splenic adherent cells), % normal control", "setting": "[4]; [8]", "result": "336 ± 170", "unit": "% normal control"}, {"measurement": "IL-1 Production (splenic adherent cells), % normal control", "setting": "[4]; [9]", "result": 374, "unit": "% normal control"}, {"measurement": "effect in adjuvant arthritic rats", "setting": "[4]; therapeutic, short-term treatment", "result": "no effect"}, {"measurement": "Right leg paw edema, % normal control", "setting": "[5]; [8]", "result": "184 ± 20", "unit": "% normal control"}, {"measurement": "Right leg paw edema, % normal control", "setting": "[5]; [9]", "result": "191 ± 13", "unit": "% normal control"}, {"measurement": "% Adherent Cells (splenic), % normal control", "setting": "splenic adherent cells; [8]", "result": "372 ± 117", "unit": "% normal control"}, {"measurement": "% Adherent Cells (splenic), % normal control", "setting": "splenic adherent cells; [9]", "result": "217 ± 6", "unit": "% normal control"}]}, {"compound": "[O-][S+]1CCn2c1nc(-c1ccc(F)cc1)c2-c1ccncc1", "note": "(centres unmarked) [Compound 2]", "values": [{"measurement": "IC50", "setting": "[3]; Homo sapiens, Monocyte, 1 ng/ml LPS, 1 hr pretreatment", "result": 800, "unit": "nM"}, {"measurement": "inhibition at 1 µM", "setting": "[3]; [7]", "result": 56, "unit": "%"}]}, {"compound": "CC(C)Cc1ccc(C(C)C(=O)O)cc1", "note": "(centres unmarked) [Ibuprofen, ibuprofen]", "values": [{"measurement": "inhibition of IL-1 production", "setting": "[3]", "result": "virtually no effect on IL-1 production"}, {"measurement": "inhibition at 10 µM", "setting": "[3]; Homo sapiens, Monocyte, 10^-5 M, read-out: % Inhibition IL-1", "result": 9, "unit": "%"}, {"measurement": "inhibition at 1 µM", "setting": "[3]; Homo sapiens, Monocyte, 10^-6 M, read-out: % Inhibition IL-1", "result": 0, "unit": "%"}, {"measurement": "inhibition at 0.1 µM", "setting": "[3]; Homo sapiens, Monocyte, 10^-7 M, read-out: % Inhibition IL-1", "result": 0, "unit": "%"}, {"measurement": "inhibition of prostaglandin synthesis", "setting": "PGE2", "result": "highly active in inhibiting prostaglandin synthesis"}, {"measurement": "inhibition at 10 µM", "setting": "PGE2; 10^-5 M", "result": 97, "unit": "%"}, {"measurement": "inhibition at 1 µM", "setting": "PGE2; 10^-6 M", "result": 71, "unit": "%"}, {"measurement": "inhibition at 0.1 µM", "setting": "PGE2; 10^-7 M", "result": 63, "unit": "%"}]}, {"compound": "COc1ccc(-c2nc3n(c2-c2ccncc2)CCCC3)cc1", "note": "[Compound 8]", "values": [{"measurement": "inhibition at 1 µM", "setting": "[3]; [7]", "result": 30, "unit": "%"}]}, {"compound": "CN/C(=N/CCSCc1nc[nH]c1C)NC#N", "note": "[cimetidine]", "values": [{"measurement": "protection from lethal effects of LPS/GALN", "setting": "[1]; mouse, in vivo", "result": "not"}]}, {"compound": "C[C@]12C=CC(=O)C=C1CC[C@@H]1[C@@H]2[C@@H](O)C[C@@]2(C)[C@H]1CC[C@]2(O)C(=O)CO", "note": "[PREDNISOLONE, Prednisolone]", "values": [{"measurement": "IL-1 Production (splenic adherent cells), % normal control", "setting": "[4]; [8]", "result": "168 ± 40", "unit": "% normal control"}, {"measurement": "IL-1 Production (splenic adherent cells), % normal control", "setting": "[4]; [9]", "result": "300 ± 280", "unit": "% normal control"}, {"measurement": "Right leg paw edema, % normal control", "setting": "[5]; [8]", "result": "125 ± 22", "unit": "% normal control"}, {"measurement": "Right leg paw edema, % normal control", "setting": "[5]; [9]", "result": "147 ± 18", "unit": "% normal control"}, {"measurement": "% Adherent Cells (splenic), % normal control", "setting": "splenic adherent cells; [8]", "result": "184 ± 79", "unit": "% normal control"}, {"measurement": "% Adherent Cells (splenic), % normal control", "setting": "splenic adherent cells; [9]", "result": "82 ± 47", "unit": "% normal control"}]}]}
